# Assay results from patent publication US6610725B1, “Fluorinated imidazoline benzodioxane, preparation and therapeutic uses thereof” (Pierre Fabre Medicament, priority 1999, dated 2003).
# Entries after “also recorded” stand apart in the source; their conditions may differ. Counter-ions that a name gives are not always drawn.
# What was measured:
# α1 or α2 receptors = details: from J. Med. Chem. publications; cited from earlier work
# α2-adrenergic receptors = test: Inhibition of the hypothermia induced with guanabenz; type: in vivo; details: for ED50 inhibition of hypothermia / Range of active doses, inhibition of hypothermia / ED50 normalization of hypothermia / Range of active doses, normalization of hypothermia: i.p.; for Range of active doses, normalization of hypothermia: normalization (return to normal temperature); for Number of doses inducing the inhibition of hypothermia in 100% of the animals: each dose separated by a factor of 4
# Description: The assessment of the biological activity of the compounds of the invention is also carried out in vivo by studying the inhibition of the hypothermia induced with a central α2-agonist such as guanabenz according to the protocol of S. C. Dilsaver, Pharmacol. Biochem. Behav., 45, 247, 1993.
# The inhibitory capacities are expressed as the ED50 which represent the doses producing a significant inhibition of the hypothermia induced with guanabenz on the one hand, and a normalization, that is to say a return to the normal temperature for the animal, before injection of guanabenz on the other hand. These values are obtained using the method of J. T. Litchfield and F. Wilcoxon (J. Pharmacol. Exp. Ther., 96, 99, 1949). The comparison is made between the 2-methoxy compounds, fluorinated in position 5 (dextrorotatory compound of Example 1) and nonfluorinated: (+) RX 821002, and between the 2-ethoxy, fluorinated in position 5 (dextrorotatory compound of Example 2) and nonfluorinated: (+) RX 811059.
# [1] = test system: memory deficit induced with scopolamine; test: Memory deficit induced with scopolamine (passive avoidance test); type: in vivo; details: rats; active doses over the range from 0.04 to 2.5 mg/kg
# Description: In accordance with the cholinergic hypothesis of the phenomena of learning and memory, scopolamine has […] properties in animals and man. Its administration to a healthy person induces certain amnesia symptoms similar to those observed in Alzheimer's disease. It has been proposed that the scopolamine be used as an experimental pharmacological model of this pathology. The similarities between the memory deficits of Alzheimer's disease and those induced with scopolamine in rats have been published (P. Chopin et M. Briley, The effects of raubasine and dihydroergocristine on an […] deficit in passive avoidance learning in rats, J.Pharm.Pharmacol. 42, 375-376, 1990). Scopolamine reduces the capacity for acquisition, memorization and recall in a test of passive avoidance in rats. This involves measuring the reticence, after learning, that the animal has in entering a dark compartment, where it receives a mild electric shock. The administration of scopolamine suppresses this reticence, and the test compounds oppose the effect of scopolamine. The comparison of the products of the present invention is made with the known compound RX 821002, dextrorotatory enantiomer. The experimental protocol is that published by P. Chopin and M. Briley (Effects of four non-cholinergic cognitive enhancers in comparison with tacrine and galanthamine on scopolamine-induced amnesia in rats: Psychopharmacology, 106, 26-30, 1992).
# release of noradrenalin = test: Release of noradrenalin: normetanephrine level in frontal cortex; type: in vivo; details: mice, i.p., 0.01 to 2.5 mg/kg, 60 minutes, cortical tissue, HPLC
# Description: The level of normetanephrine, a noradrenalin metabolite, in the cerebral tissues is used as a measurement of the release of noradrenalin. Wood, P. L. and coll. Pharmacological Rev. 40, 163-187, (1988), and J. Neurochem. 48, 574-579, (1987)). The formation of normetanephrine, by the action of catechol O-methyltransferase takes place on the outside of the noradrenergic neurones and its measurement takes account of variations in the release of noradrenalin. This measurement is performed in the frontal cortex, a region innervated mainly by the locus coeruleus.
# The test compound is administered intraperitoneally to the mice, which are sacrificed after 60 minutes by irradiation with microwaves (to avoid any artefactual changes in the metabolite levels). After dissection, normetanephrine is assayed by HPLC on the cortical tissue extracts. At doses of 0.01 to 2.5 mg/kg, the assayed normetanephrine represents a level from 125 to 150% higher with the compound of Example 1, relative to (+) RX 821002, under the same conditions.
smiles,measurement,setting,value
COc1cc2c(cc1OC)OC(OC)(C1=NCCN1)CO2 (stereo not shown),Activity relative to unsubstituted idazoxan analog / α2-presynaptic antagonist activity,α1 or α2 receptors,only extremely marginal activity
"Fc1cccc2c1OCC(OCc1ccccc1)(C1=NCCN1)O2 (stereo not shown) (as salt: hydrochloride) (hydrate or solvate) [Example 8, 2-(5-Fluoro-2-benzyloxy-1,4-benzodioxan-2-yl)-imidazoline Hydrochloride]",melting point,,218 °C
"CCCOC1(C2=NCCN2)COc2c(F)cccc2O1 (stereo not shown) (as salt: hydrochloride) [Example 3, 2-(5-Fluoro-2-propoxy-1,4-benzodioxan-2-yl)-imidazoline Hydrochloride]",melting point,,206 °C
"CC(C)COC1(C2=NCCN2)COc2c(F)cccc2O1 (stereo not shown) (as salt: hydrochloride) [Example 5, 2-(5-Fluoro-2-isobutoxy-1,4-benzodioxan-2-yl)-imidazoline Hydrochloride]",melting point,,206 °C
"C=CCOC1(C2=NCCN2)COc2c(F)cccc2O1 (stereo not shown) (as salt: hydrochloride) [Example 7, 2-(5-Fluoro-2-allyloxy-1,4-benzodioxan-2-yl)-imidazoline Hydrochloride]",melting point,,214 °C
"CCOC1(C2=NCCN2)COc2c(F)cccc2O1 (stereo not shown) (as salt: salt) [Example 2, 2-(5-Fluoro-2-ethoxy-1,4-benzodioxan-2-yl)-2-imidazoline]",melting point,,> 260 °C
"CCOC1(C2=NCCN2)COc2ccccc2O1 (single isomer, unassigned; (+)) [(+) RX 811059, 2-ethoxy idazoxan]",ED50 inhibition of hypothermia,α2-adrenergic receptors,0.08 mg/kg
same,"Range of active doses, inhibition of hypothermia",α2-adrenergic receptors,0.04 to 10 mg/kg
same,ED50 normalization of hypothermia,α2-adrenergic receptors,0.32 mg/kg
same,"Range of active doses, normalization of hypothermia",α2-adrenergic receptors,0.16 to 10 mg/kg
"COC1(C2=NCCN2)COc2ccccc2O1 (single isomer, unassigned; (+)) [(+) RX 821002, 2-methoxy idazoxan]","Increase in the time taken to enter the dark compartment by the treated animals, relative to those receiving scopolamine alone (% amplitude of the effect)",[1],not significantly active; also recorded: non-significant
same,Number of doses inducing the inhibition of hypothermia in 100% of the animals,α2-adrenergic receptors,2 doses
same,ED50 inhibition of hypothermia,α2-adrenergic receptors,0.01 mg/kg
same,"Range of active doses, inhibition of hypothermia",α2-adrenergic receptors,0.01 to 10 mg/kg
same,ED50 normalization of hypothermia,α2-adrenergic receptors,0.05 mg/kg
same,"Range of active doses, normalization of hypothermia",α2-adrenergic receptors,0.04 to 2.5 mg/kg
same,Doses normalizing the hypothermia in 100% of the animals,α2-adrenergic receptors; list of single doses,none
same,ED50 normalization (per os),α2-adrenergic receptors,0.56 mg/kg
same,Range of active doses (per os) normalization,α2-adrenergic receptors,0.16 to 10 mg/kg
same,Proportion of the animals in which hypothermia is normalized (maximum reached),α2-adrenergic receptors; reached at only 2 doses,80%
"COC1(C2=NCCN2)COc2c(F)cccc2O1 (stereo not shown) [Dextrorotatory compound of Example 1, 2-(5-Fluoro-2-methoxy-1,4-benzodioxan-2-yl)-2-imidazoline]","Increase in the time taken to enter the dark compartment by the treated animals, relative to those receiving scopolamine alone (% amplitude of the effect)",[1],201%
same,Number of doses inducing the inhibition of hypothermia in 100% of the animals,α2-adrenergic receptors,6 doses
same,ED50 inhibition of hypothermia,α2-adrenergic receptors,0.003 mg/kg
same,"Range of active doses, inhibition of hypothermia",α2-adrenergic receptors,0.0025 to 40 mg/kg
same,ED50 normalization of hypothermia,α2-adrenergic receptors,0.02 mg/kg
same,"Range of active doses, normalization of hypothermia",α2-adrenergic receptors,0.0025 to 10 mg/kg
same,Number of doses normalizing the hypothermia in 100% of the animals,α2-adrenergic receptors; in vivo,3 doses
same,ED50 normalization (per os),α2-adrenergic receptors,0.22 mg/kg
same,Range of active doses (per os) normalization,α2-adrenergic receptors,0.04 to 40 mg/kg
"CCOC1(C2=NCCN2)COc2c(F)cccc2O1 (stereo not shown) [Dextrorotatory compound of Example 2, 2-(5-Fluoro-2-ethoxy-1,4-benzodioxan-2-yl)-2-imidazoline]","Increase in the time taken to enter the dark compartment by the treated animals, relative to those receiving scopolamine alone (% amplitude of the effect)",[1],198%
same,ED50 inhibition of hypothermia,α2-adrenergic receptors,0.02 mg/kg
same,"Range of active doses, inhibition of hypothermia",α2-adrenergic receptors,0.0025 to 40 mg/kg
same,ED50 normalization of hypothermia,α2-adrenergic receptors,0.16 mg/kg
same,"Range of active doses, normalization of hypothermia",α2-adrenergic receptors,0.01 to 10 mg/kg
COc1cc2c(cc1OC)C(=O)C(CC1CCN(Cc3ccccc3)CC1)C2 (stereo not shown) [Donepezil],"Increase in the time taken to enter the dark compartment by the treated animals, relative to those receiving scopolamine alone (% amplitude of the effect)",[1],67%
"COC1(C2=NCCN2)COc2c(F)cccc2O1 (stereo not shown) [Example 1, 2-(5-Fluoro-2-methoxy-1,4-benzodioxan-2-yl)-2-imidazoline]",Assayed normetanephrine level relative to (+) RX 821002,release of noradrenalin,125 to 150 % higher
Nc1c2c(nc3ccccc13)CCCC2 [Tacrine],"Increase in the time taken to enter the dark compartment by the treated animals, relative to those receiving scopolamine alone (% amplitude of the effect)",[1],191%
